The data set is described as follows: in vitro. As to conditions: human, hela cells, % viability.

Each structure is given as a SMILES string.

As a reminder, the viability is a read-out of living cells in per cent, often relative to untreated cells.

With `CCOc1cc(S(=O)(=O)NCCCN2CCOCC2)c(C)cc1C` [CBK268764], the viability at 28.5 h, 10 µM stood at 99%.
In the case of `CSCCC(NS(=O)(=O)c1ccc(I)cc1)C(=O)O` (stereo not drawn) [CBK268768], the viability at 28.5 h, 10 µM was 98.6%.
Regarding `Cc1cc(C)cc(N(C(C)C(=O)Nc2ccccc2-c2ccccc2)S(C)(=O)=O)c1` (stereo not drawn) [CBK268770], the viability at 28.5 h, 10 µM is 101%.
To `COC(=O)c1ccc(COc2nc3ccccc3nc2/C=C/c2cccc([N+](=O)[O-])c2)cc1` [CBK268776] belongs 112%; to `COc1ccc(COc2nc3c(c(=O)n(C)c(=O)n3C)n2Cc2ccc(Cl)c(Cl)c2)cc1` [CBK268779], 91.3%.
To `COc1ccc(N2CC(C(=O)Nc3ccc(C(=O)O)cc3)CC2=O)cc1` (stereo not drawn) [CBK268782] belongs 88%; to `CC(C)(C)C(=O)Nc1ccc(S(=O)(=O)NC2CCCCC2)cc1` [CBK268783], 118%; to `Cc1ccc(NS(=O)(=O)c2cc(C(=O)Nc3ccc(S(=O)(=O)N4CCCC4)cc3)ccc2C)cc1` [CBK268784], 89.8%.
For `O=C(NC(=S)Nc1cccc(-c2nc3ccccc3s2)c1)c1cc([N+](=O)[O-])ccc1N1CCOCC1` [CBK268789], the viability at 28.5 h, 10 µM stood at 103%.
For `Cc1onc(-c2ccccc2Cl)c1C(=O)N(Cc1nc(-c2ccccc2)no1)C1CCCCC1` [CBK268790], the viability at 28.5 h, 10 µM is 108%.
`Cc1ccc(-n2c(SCC(=O)N3CCc4ccccc43)nnc2-c2ccccc2O)c(C)c1` [CBK268793]: the viability at 28.5 h, 10 µM stood at 108%.
Consider `COc1ccccc1-c1noc(CCCC(=O)Nc2cccc(C(F)(F)F)c2)n1` [CBK268794], for which the viability at 28.5 h, 10 µM was 96.3%.
With `COc1ccc(CCNC(=O)c2nc3ncccn3n2)cc1OC` [CBK268795], the viability at 28.5 h, 10 µM was 90.4%.
`COC(=O)c1ccccc1NC(=O)C1CCCN(S(=O)(=O)c2cc(Cl)ccc2Cl)C1` (stereo not drawn) [CBK268797]: the viability at 28.5 h, 10 µM came out at 101%.
For the compound `OCCN1CCN(c2nc3ccccc3nc2-c2ccccc2)CC1` [CBK268799C], the viability at 28.5 h, 10 µM worked out at 111%.
Take `O=C(CN1CCCC1)Nc1sc2c(c1C(=O)Nc1ccccc1)CCCC2` [CBK268800]: the viability at 28.5 h, 10 µM was found to be 103%.
To `CC(=O)Nc1ccc(S(=O)(=O)N2CCN(c3ccc([N+](=O)[O-])c(NC4C5CC6CC(C5)CC4C6)c3)CC2)cc1` (stereo not drawn) [CBK268802] belongs 90.5%; to `CCN(CC)CCn1c(=N)n(Cc2ccc(C(C)(C)C)cc2)c2ccccc21` [CBK268803B], 82.9%; to `CN(C)c1nc(NCc2ccccc2)nc(SCC(=O)Nc2ccccc2)n1` [CBK268810], 88.9%.
Turning to `O=C(COc1ccccc1[N+](=O)[O-])Nc1ccc(Cl)c(-c2nc3ncccc3o2)c1` [CBK268811], the viability at 28.5 h, 10 µM was 88.8%.
In the case of `Cc1nc(SCCC(=O)Nc2ccccc2C#N)nc2cc3c(cc12)CCC3` [CBK268812], the viability at 28.5 h, 10 µM worked out at 90.2%.
As for `NS(=O)(=O)c1ccc(NC(=S)NC(=O)c2cccc3c(Cl)cccc23)cc1` [CBK268814], the viability at 28.5 h, 10 µM was 99.5%.
The result for `O=C(O)CCNS(=O)(=O)c1ccc(Cl)c(Cl)c1` [CBK268815] reads 112%; that for `Cc1cccc(-c2noc(CN(C(=O)c3ccc4c(c3)OCO4)C(C)C)n2)c1` [CBK268817], 98.1%.
Consider `O=C(O)CCN1CCN(S(=O)(=O)c2cccc([N+](=O)[O-])c2)CC1` [CBK268819], for which the viability at 28.5 h, 10 µM came to 89.7%.
On to `O=C(CSc1nnc(CN2CCOCC2)n1-c1ccc(Cl)cc1)N1c2ccccc2SC2C=CC=CC21` (stereo not drawn) [CBK268820], for which the viability at 28.5 h, 10 µM amounted to 91.3%.
In the case of `CCCSc1ncc(Cl)c(C(=O)Nc2ccc(C(=O)OC)cc2)n1` [CBK268824], the viability at 28.5 h, 10 µM turned out to be 102%.
On to `CS(=O)(=O)N(CC(=O)Nc1ccccc1C(=O)N1CCCC1)c1cc(Cl)c(Cl)cc1Cl` [CBK268826], for which the viability at 28.5 h, 10 µM came to 106%.
On to `CCN(CC(=O)N1CCN(c2cc(Cl)ccc2C)CC1)S(=O)(=O)c1ccc2ccccc2c1` [CBK268827], for which the viability at 28.5 h, 10 µM came out at 92.8%.
Consider `Cc1c(NC(=O)CSc2ccc(Cl)cc2)cccc1-c1nc2ncccc2o1` [CBK268829], for which the viability at 28.5 h, 10 µM is 109%.
With `Cc1cc(O)c(-c2n[nH]c3c2C(c2ccccc2F)N(Cc2cccnc2)C3=O)cc1C` (stereo not drawn) [CBK268831], the viability at 28.5 h, 10 µM was 89.8%.
Turning to `CSc1nsc(SCC(=O)c2cc3ccccc3oc2=O)n1` [CBK268833], the viability at 28.5 h, 10 µM was found to be 105%.
With `Cc1cc(C)cc(N(C(C)C(=O)Nc2ccc(C(F)(F)F)cc2)S(C)(=O)=O)c1` (stereo not drawn) [CBK268834], the viability at 28.5 h, 10 µM stood at 89.6%.
As to `O=C(CN1CCN(c2ccccn2)CC1)N1c2ccccc2Sc2ccc(C(F)(F)F)cc21` [CBK268835G], the viability at 28.5 h, 10 µM worked out at 98.8%.
Consider `O=C(CSc1nnc(-c2ccc(Cl)cc2Cl)o1)c1ccc2c(c1)OCCO2` [CBK268839], for which the viability at 28.5 h, 10 µM was 113%.
Take `O=S(=O)(N1CCOCC1)N1CCN(CC(O)COc2ccc3cc(Br)ccc3c2)CC1` (stereo not drawn) [CBK268840]: the viability at 28.5 h, 10 µM was found to be 103%.
The result for `O=C(O)CC(NC(=O)c1ccccc1)c1ccco1` (stereo not drawn) [CBK268843] reads 87.4%.
In the case of `Cc1nnc2sc(-c3ccccc3NC(=S)NC(=O)c3cc4ccccc4o3)nn12` [CBK268845], the viability at 28.5 h, 10 µM worked out at 103%.
`COc1ccc(C2c3c(-c4cc(C)c(C)cc4O)n[nH]c3C(=O)N2Cc2cccnc2)cc1OC` (stereo not drawn) [CBK268846]: the viability at 28.5 h, 10 µM is 106%.
In the case of `COc1ccccc1-c1noc(CCCC(=O)Nc2cccnc2)n1` [CBK268848], the viability at 28.5 h, 10 µM is 101%.
Consider `C=CCn1c(S)nnc1CCSCc1ccccc1` [CBK268849], for which the viability at 28.5 h, 10 µM amounted to 95.1%.
`CC(O)c1cc2c(cc1NC(=O)c1cnn3c1NC(c1ccco1)CC3C(F)(F)F)OCO2` (stereo not drawn) [CBK268850]: the viability at 28.5 h, 10 µM turned out to be 83.3%.
For `O=C(O)CCc1ccc(-c2ccc(F)cc2)n1NC(=O)c1ccco1` [CBK268853], the viability at 28.5 h, 10 µM turned out to be 90.7%.
On to `CS(=O)(=O)N1CCN(c2ccccc2NC(=O)COc2ccc(Cl)cc2)CC1` [CBK268854], for which the viability at 28.5 h, 10 µM worked out at 94.7%.
Regarding `NCCCN(Cc1ccco1)C1CCCC1` [CBK268856], the viability at 28.5 h, 10 µM was 109%.
Consider `O=C(Cc1ccccc1)N1CCN(S(=O)(=O)N2CCOCC2)CC1` [CBK268857], for which the viability at 28.5 h, 10 µM stood at 108%.
Consider `O=C(CCCSC1=NC(C(F)(F)F)CC(c2ccco2)N1)Nc1ccc(Cl)c(Cl)c1` (stereo not drawn) [CBK268858], for which the viability at 28.5 h, 10 µM turned out to be 88%.
As for `O=C(O)Cc1ccc(-n2c(S)nnc2-c2ccncc2)cc1` [CBK268860], the viability at 28.5 h, 10 µM is 94.9%.
Regarding `O=c1[nH]c(CSc2nnc(CCCOc3ccc(Cl)cc3Cl)o2)nc2ccccc12` [CBK268861], the viability at 28.5 h, 10 µM was found to be 97.2%.
For `Cn1c(NCc2ccco2)nc2c1c(=O)n(Cc1cccc(Br)c1)c(=O)n2C` [CBK268863], the viability at 28.5 h, 10 µM amounted to 79.8%.
`O=C(NC(=S)Nc1ccc2oc(-c3cncc(Br)c3)nc2c1)c1cc([N+](=O)[O-])ccc1N1CCOCC1` [CBK268864]: the viability at 28.5 h, 10 µM was determined as 118%.
On to `Cn1c(=O)oc2cc(S(=O)(=O)N3CCN(C4CCCCC4)CC3)ccc21` [CBK268865], for which the viability at 28.5 h, 10 µM came to 107%.
For the compound `O=C(O)CCC(=O)Nc1ccc(NC(=O)C2CCCCC2)c(Cl)c1` [CBK268867], the viability at 28.5 h, 10 µM was determined as 89.3%.
In the case of `CC(C)(C)c1ccc(C(=O)NCCNC(=O)c2nonc2N)cc1` [CBK268869], the viability at 28.5 h, 10 µM is 89.5%.
Regarding `COc1cccc(CNC23CC4CC(CC(C4)C2)C3)c1OCc1ccccc1` [CBK268873C], the viability at 28.5 h, 10 µM worked out at 92%.
To `Cn1c(Cc2ccccc2)nnc1SCCC(=O)Nc1ccccc1` [CBK268874] belongs 91.3%; to `Cc1c(Cl)c([N+](=O)[O-])nn1CCCC(=O)Nc1cc(Br)ccc1O` [CBK268875], 93.1%.
For the compound `COc1ccc(-c2nc3ccccc3s2)cc1NC(=O)c1ccc(OCC(C)C)cc1` [CBK268878], the viability at 28.5 h, 10 µM stood at 94.7%.
In the case of `COc1ccc(OC)c(NC(=O)CNC(=O)c2ccc(C)cc2)c1` [CBK268881], the viability at 28.5 h, 10 µM came to 91.5%.
As to `COc1ccc(Cl)cc1NC(=O)CCCn1cnc([N+](=O)[O-])n1` [CBK268882], the viability at 28.5 h, 10 µM worked out at 83.2%.
Regarding `Cc1nn2cc(-c3n[nH]cc3[N+](=O)[O-])cnc2c1C(=O)O` [CBK268883], the viability at 28.5 h, 10 µM was determined as 98.3%.
On to `COCCCN1C(=O)c2[nH]nc(-c3cc(C)c(C)cc3O)c2C1c1ccc(SC)cc1` (stereo not drawn) [CBK268884], for which the viability at 28.5 h, 10 µM came to 89%.
On to `O=C(Nc1ccc(NC(=O)c2cc3ccccc3o2)cc1)c1ccc(-c2ccccc2)cc1` [CBK268887], for which the viability at 28.5 h, 10 µM came out at 107%.
Take `Cc1ccc(N2C(=O)C(CC(=O)Nc3cccc(F)c3)N(CCc3ccncc3)C2=O)cc1` (stereo not drawn) [CBK268891]: the viability at 28.5 h, 10 µM was 96.5%.
The result for `Cc1cc(/C=C(/C#N)c2ccc(C(=O)O)cc2)c(C)n1-c1ccc(S(N)(=O)=O)cc1` [CBK268896] reads 116%; that for `CC(=O)c1cccc(NC(=O)CN(c2cc(Cl)ccc2Cl)S(=O)(=O)c2ccc(C)cc2)c1` [CBK268897], 90.6%; that for `CCOc1ccc(C(=O)NC(=S)Nc2sc(C)c(C)c2C#N)cc1Cl` [CBK268900], 91.8%.
For `O=C(Nc1ccc(S(=O)(=O)N2CCCCC2)cc1)c1nc(SCc2ccccc2)ncc1Cl` [CBK268901], the viability at 28.5 h, 10 µM came out at 107%.
For `COc1ccc(-c2nnc(SCCC(=O)O)n2C)cc1OC` [CBK268902], the viability at 28.5 h, 10 µM was 98.8%.
Regarding `CCOc1ccc(-n2c(SCc3nc(-c4ccccc4C)no3)nnc2-c2ccccc2)cc1` [CBK268910], the viability at 28.5 h, 10 µM stood at 109%.
Regarding `CC(=O)c1cccc(NC(=O)CCCn2cc([N+](=O)[O-])cn2)c1` [CBK268911], the viability at 28.5 h, 10 µM is 82.8%.
To `O=C(CSc1nn2cnnc2s1)Nc1ccc(I)cc1` [CBK268913] belongs 88.2%; to `CS(=O)(=O)N(CC(=O)Nc1ccc(C(F)(F)F)cc1)Cc1ccc(Cl)cc1` [CBK268915], 99.7%; to `N#C/C(=C\c1ccc(OCC(=O)O)cc1)C(N)=S` [CBK268917], 102%.
As to `Cc1cccnc1NC(=O)C(C)n1cc([N+](=O)[O-])cn1` (stereo not drawn) [CBK268918], the viability at 28.5 h, 10 µM turned out to be 104%.

The values above are taken from PMC12040169 (PLOS Biology, 2025).
